Measured values: US11154210B2, “Method of determining vasoreactivity using inhaled nitric oxide” (VERO BIOTECH LLC, priority 2011, dated 2021)
“And” between values parts separate entries of the source, which are not always exact repeats. Identical values can stand only once.

Tests used:
[1] = system: patients with pulmonary arterial hypertension; test: Inhaled nitric oxide vasodilator challenge during right heart catheterization, retrospective review of prostacyclin wean/transition cases; assay type: in vivo, human
Source text: Inhaled nitric oxide (NO) can be administered during right heart catheterization (RHC) to evaluate and characterize pulmonary hemodynamics following long term parenteral prostacyclin therapy and can provide information that may influence the choice of treatment strategies for these patients. These treatment strategies may involve changing vasodilator therapy, eligibility for lung and/or heart transplantation, or changes in prognosis. Inhaled nitric oxide can be a potent, selective pulmonary vasodilator agent and has been well studied up to 80 ppm. It is expected that inhaled nitric oxide as a diagnostic agent during RHC may be useful for facilitating patient management strategies and provide clinical information beneficial to patient care.
An aim of the project was to collect and review the existing data from centers experienced with the practice of transition from parenteral prostacyclins to an alternative therapy. The review was conducted to determine if a population could be characterized based on the hemodynamic response using inhaled nitric oxide during right heart catheterization. A primary objective of the project was to determine the correlation, if any, between the return of pulmonary vascular reactivity following parenteral prostacyclin therapy and the ability of the patient to transition from parenteral prostacyclins to an alternative therapy. Secondary objectives included the exploration of clinical characteristics of a patient population with a documented wean or transition from parenteral prostacyclins, as well as evaluating any change in clinical impression.
To date seven sites have contributed to the data set collected for a total of 47 baseline visits, and 246 follow-up visits. There are five failed weans and seven late failures. Data was available to review for 40 cases entered. No statistical analysis was performed and reviews completed were descriptive in order to identify any shared characteristics in the population either as a success, failure or late failure.
Three cases, where nitric oxide re-challenge data was available at the time of subject wean, are represented in Table 2.
The lack of correlation between the clinical findings and the ECHO data prompted review of the data. Baseline hemodynamics, wean hemodynamics and echocardiography data were reviewed for all the failed transitions. […] In each case, where echocardiography data was available and right ventricular enlargement was indicated and/or right ventricular dysfunction was indicated, a failed wean or late failure was common.

[2] = system: patients with pulmonary arterial hypertension; settings: epoprostenol therapy, 27 consecutive patients; cited from earlier work
[3] = system: patients with pulmonary arterial hypertension; settings: active group (n=41), 12 weeks; cited from earlier work
[4] = failed wean/late failure cases, Time of Wean

Structure (SMILES): [N]=O [NO, nitric oxide]
- acute vasodilator response (fall in PAPm of >10 mm Hg to <40 mm Hg) ([1]; all three cases of Table 2): failed to meet the criteria
- change in PAPm ([1]; all three cases of Table 2, nitric oxide challenge at time of wean): only a modest decrease
- NO CO ([1]; cardiac output on nitric oxide challenge at time of wean, one patient case per table row): 5.2 and 7.8 and 4.77
- change in CO ([1]; case of the failed transition): marked increase
- change in PVR ([1]; case of the failed transition): minimal decrease
- WN NO CO [1, 4]: 5.2
- WN NO PAPm [1, 4]: 49
- WN NO PVR [1, 4]: 8.3
- NO PAPm ([1]; mean pulmonary arterial pressure on nitric oxide challenge at time of wean, one patient case per table row): 49 and 48 and 70
- NO PVR ([1]; pulmonary vascular resistance on nitric oxide challenge at time of wean, one patient case per table row): 8.3 and 3.8 and 14.4

Structure (SMILES): CCCCC[C@H](O)/C=C/[C@@H]1[C@H]2C/C(=C/CCCC(=O)O)O[C@H]2C[C@H]1O [epoprostenol]
- cardiac output increased [2]: 67%
- mean pulmonary artery pressure declined [2]: 22%
- pulmonary vascular resistance declined [2]: 53%
- average decline in mean pulmonary arterial pressure [3]: 8%
- decline in pulmonary vascular resistance [3]: 21%
